Experimental data published in the NIST ThermoML archive (doi:10.1016/j.tca.2017.12.019).
Numbers after ± are expanded uncertainties.

Key:
[1] = Crystal; DTA
[2] = Molar enthalpy of transition or fusion; settings: Crystal; DSC

Normal melting temperature [1]: 42.70 ± 0.7 °C | Molar enthalpy of transition or fusion [2]: 8.43 ± 0.234 kcal/mol
Compound: CCCCCCCCCCCC(=O)O [dodecanoic acid]
